According to patent US20030171329A1, “Stable compositions comprising tezacitabine” (priority 2002, published 2003):
Where two headings read alike, the source gives them in different places.

Experiments:
[1] = Stability of tezacitabine in unbuffered aqueous solution; type: physicochemical
[2] = Method: In this study the stabilty of FMdC glutamate and glycine buffers at pH 8.5 to 9.5 was evaluated at various storage conditions (5°, 25°, 35°, 45°, and 55° C.). FMdC solutions were made up at 1 mg/mL in 7.1 mg/mL monosodium glutamate monohydrate (38 mM) or 2.8 mg/mL glycine (37 mM) and pH adjusted to target with sodium hydroxide. Solution samples were placed in stoppered glass vials and stored at the various temperatures. […] Detention was by UV at 268 nm.
The higher-temperature data can be evaluated further by Arrhenius analysis to predict shelf lives at lower temperatures. First-order rate constants are determined by fitting the concentration and time data to an equation of the form C(t)=C(0)·exp (−k·t), where C(t) is the concentration at time t, C(0) is the concentration at time 0, t is the time, and k is the first-order rate constant. The rate constants are in turn fitted to an equation of the form k (T)=A·exp (−Ea/RT), where k(T) is the rate constant at temperature T, Ea is the energy of activation, R is the gas constant, T is the absolute temperature (in ° K), and A is a constant.

[3] = Glutamate pH 8.5 buffer, 5° C., 24 weeks
[4] = Glutamate pH 8.5 buffer, 25° C., 0 weeks
[5] = Glutamate pH 8.5 buffer, 25° C., 4 weeks
[6] = Glutamate pH 8.5 buffer, 25° C., 16 weeks
[7] = Glutamate pH 8.5 buffer, 25° C., 24 weeks
[8] = Glutamate pH 8.5 buffer, 35° C., 0 weeks
[9] = Glutamate pH 8.5 buffer, 35° C., 4 weeks
[10] = Glutamate pH 8.5 buffer, 35° C., 16 weeks
[11] = Glutamate pH 8.5 buffer, 35° C., 24 weeks
[12] = Glutamate pH 8.5 buffer, 45° C., 0 weeks
[13] = Glutamate pH 8.5 buffer, 45° C., 4 weeks
[14] = Glutamate pH 9.0 buffer, 5° C., 24 weeks
[15] = Glutamate pH 9.0 buffer, 25° C., 0 weeks
[16] = Glutamate pH 9.0 buffer, 25° C., 4 weeks
[17] = Glutamate pH 9.0 buffer, 25° C., 16 weeks
[18] = Glutamate pH 9.0 buffer, 25° C., 24 weeks
[19] = Glutamate pH 9.0 buffer, 35° C., 0 weeks
[20] = Glutamate pH 9.0 buffer, 35° C., 4 weeks
[21] = Glutamate pH 9.0 buffer, 35° C., 16 weeks
[22] = Glutamate pH 9.0 buffer, 35° C., 24 weeks
[23] = Glutamate pH 9.0 buffer, 45° C., 0 weeks
[24] = Glutamate pH 9.0 buffer, 45° C., 4 weeks
[25] = Glutamate pH 9.5 buffer, 5° C., 24 weeks
[26] = Glutamate pH 9.5 buffer, 25° C., 0 weeks
[27] = Glutamate pH 9.5 buffer, 25° C., 4 weeks
[28] = Glutamate pH 9.5 buffer, 25° C., 16 weeks
[29] = Glutamate pH 9.5 buffer, 25° C., 24 weeks
[30] = Glutamate pH 9.5 buffer, 35° C., 0 weeks
[31] = Glutamate pH 9.5 buffer, 35° C., 4 weeks
[32] = Glutamate pH 9.5 buffer, 35° C., 16 weeks
[33] = Glutamate pH 9.5 buffer, 35° C., 24 weeks
[34] = Glutamate pH 9.5 buffer, 45° C., 0 weeks
[35] = Glutamate pH 9.5 buffer, 45° C., 4 weeks
[36] = Glycine pH 9.0 buffer, 5° C., 24 weeks
[37] = Glycine pH 9.0 buffer, 25° C., 0 weeks
[38] = Glycine pH 9.0 buffer, 25° C., 4 weeks
[39] = Glycine pH 9.0 buffer, 25° C., 16 weeks
[40] = Glycine pH 9.0 buffer, 25° C., 24 weeks
[41] = Glycine pH 9.0 buffer, 35° C., 0 weeks
[42] = Glycine pH 9.0 buffer, 35° C., 16 weeks
[43] = Glycine pH 9.0 buffer, 35° C., 24 weeks
[44] = Glycine pH 9.0 buffer, 45° C., 0 weeks

pH before storage ([1]; 35° C., start): about 7.2 | loss of drug (HPLC) ([1]; 35° C., within 4 days): greater than 90% | pH after storage ([1]; 35° C., within 4 days): about 4.3 | stability in words ([2]; 1 mg/mL): stable for almost 6 months | predicted first-order rate constant of degradation ([2]; 1 mg/mL, pH 9): 3.0·10^−4 week^−1 | FMdC ([2]; Glutamate pH 8.5 buffer, 5° C., 12 weeks): 1.00 mg/mL | pH ([2]; Glutamate pH 8.5 buffer, 5° C., 16 weeks): 8.63 | FMdC [2, 3]: 1.00 mg/mL | pH [2, 3]: 8.66 | FMdC [2, 4]: 1.00 mg/mL | pH [2, 4]: 8.50 | FMdC [2, 5]: 1.00 mg/mL | pH [2, 5]: 8.55 | FMdC [2, 6]: 0.99 mg/mL | pH [2, 6]: 7.93 | FMdC [2, 7]: 0.99 mg/mL | pH [2, 7]: 8.64 | FMdC [2, 8]: 1.00 mg/mL | pH [2, 8]: 8.50 | FMdC [2, 9]: 1.00 mg/mL | pH [2, 9]: 8.55 | FMdC [2, 10]: 0.97 mg/mL | pH [2, 10]: 8.59 | FMdC [2, 11]: 0.95 mg/mL | pH [2, 11]: 8.58 | FMdC [2, 12]: 1.00 mg/mL | pH [2, 12]: 8.50 | FMdC [2, 13]: 0.98 mg/mL | pH [2, 13]: 8.56 | FMdC ([2]; Glutamate pH 8.5 buffer, 45° C., 16 weeks): 0.85 mg/mL | FMdC ([2]; Glutamate pH 8.5 buffer, 45° C., 24 weeks): 0.47 mg/mL | FMdC ([2]; Glutamate pH 8.5 buffer, 55° C., 0 weeks): 1.00 mg/mL | FMdC ([2]; Glutamate pH 8.5 buffer, 55° C., 2 weeks): 0.91 mg/mL | FMdC ([2]; Glutamate pH 8.5 buffer, 55° C., 4 weeks): 0.72 mg/mL | FMdC ([2]; Glutamate pH 8.5 buffer, 55° C., 8 weeks): 0.03 mg/mL | FMdC ([2]; Glutamate pH 9.0 buffer, 5° C., 12 weeks): 1.00 mg/mL | pH ([2]; Glutamate pH 9.0 buffer, 5° C., 16 weeks): 9.10 | FMdC [2, 14]: 1.00 mg/mL | pH [2, 14]: 9.05 | FMdC [2, 15]: 1.01 mg/mL | pH [2, 15]: 9.00 | FMdC [2, 16]: 1.01 mg/mL | pH [2, 16]: 9.07 | FMdC [2, 17]: 0.99 mg/mL | pH [2, 17]: 8.80 | FMdC [2, 18]: 0.99 mg/mL | pH [2, 18]: 9.09 | FMdC [2, 19]: 1.01 mg/mL | pH [2, 19]: 9.00 | FMdC [2, 20]: 1.01 mg/mL | pH [2, 20]: 9.06 | FMdC [2, 21]: 0.98 mg/mL | pH [2, 21]: 9.08 | FMdC [2, 22]: 0.98 mg/mL | pH [2, 22]: 9.08 | FMdC [2, 23]: 1.01 mg/mL | pH [2, 23]: 9.00 | FMdC [2, 24]: 0.99 mg/mL | pH [2, 24]: 9.04 | FMdC ([2]; Glutamate pH 9.0 buffer, 45° C., 16 weeks): 0.92 mg/mL | FMdC ([2]; Glutamate pH 9.0 buffer, 45° C., 24 weeks): 0.88 mg/mL | FMdC ([2]; Glutamate pH 9.0 buffer, 55° C., 0 weeks): 1.01 mg/mL | FMdC ([2]; Glutamate pH 9.0 buffer, 55° C., 2 weeks): 0.96 mg/mL | FMdC ([2]; Glutamate pH 9.0 buffer, 55° C., 4 weeks): 0.91 mg/mL | FMdC ([2]; Glutamate pH 9.0 buffer, 55° C., 8 weeks): 0.78 mg/mL | FMdC ([2]; Glutamate pH 9.5 buffer, 5° C., 12 weeks): 1.00 mglmL | pH ([2]; Glutamate pH 9.5 buffer, 5° C., 16 weeks): 9.54 | FMdC [2, 25]: 1.01 mglmL | pH [2, 25]: 9.57 | FMdC [2, 26]: 1.00 mglmL | pH [2, 26]: 9.50 | FMdC [2, 27]: 1.00 mglmL | pH [2, 27]: 9.53 | FMdC [2, 28]: 1.00 mglmL | pH [2, 28]: 9.55 | FMdC [2, 29]: 0.99 mglmL | pH [2, 29]: 9.57 | FMdC [2, 30]: 1.00 mglmL | pH [2, 30]: 9.50 | FMdC [2, 31]: 1.00 mglmL | pH [2, 31]: 9.54 | FMdC [2, 32]: 0.98 mglmL | pH [2, 32]: 9.59 | FMdC [2, 33]: 0.97 mglmL | pH [2, 33]: 9.62 | FMdC [2, 34]: 1.00 mglmL | pH [2, 34]: 9.50 | FMdC [2, 35]: 0.99 mglmL | pH [2, 35]: 9.56 | FMdC ([2]; Glutamate pH 9.5 buffer, 45° C., 16 weeks): 0.92 mglmL | FMdC ([2]; Glutamate pH 9.5 buffer, 45° C., 24 weeks): 0.89 mglmL | FMdC ([2]; Glutamate pH 9.5 buffer, 55° C., 0 weeks): 1.00 mglmL | FMdC ([2]; Glutamate pH 9.5 buffer, 55° C., 2 weeks): 0.97 mglmL | FMdC ([2]; Glutamate pH 9.5 buffer, 55° C., 4 weeks): 0.93 mglmL | FMdC ([2]; Glutamate pH 9.5 buffer, 55° C., 8 weeks): 0.82 mglmL | FMdC ([2]; Glycine pH 9.0 buffer, 5° C., 12 weeks): 1.01 mg/mL | pH ([2]; Glycine pH 9.0 buffer, 5° C., 16 weeks): 9.30 | FMdC [2, 36]: 1.00 mg/mL | pH [2, 36]: 9.33 | FMdC [2, 37]: 1.00 mg/mL | pH [2, 37]: 9.00 | FMdC [2, 38]: 1.01 mg/mL | pH [2, 38]: 9.33 | FMdC [2, 39]: 1.00 mg/mL | pH [2, 39]: 9.30 | FMdC [2, 40]: 0.99 mg/mL | pH [2, 40]: 9.32 | FMdC [2, 41]: 1.00 mg/mL | pH [2, 41]: 9.00 | pH ([2]; Glycine pH 9.0 buffer, 35° C., 4 weeks): 9.32 | FMdC [2, 42]: 0.98 mg/mL | pH [2, 42]: 9.32 | FMdC [2, 43]: 0.97 mg/mL | pH [2, 43]: 9.31 | FMdC [2, 44]: 1.00 mg/mL | pH [2, 44]: 9.00 | FMdC ([2]; Glycine pH 9.0 buffer, 45° C., 4 weeks): 0.99 mg/mL | FMdC ([2]; Glycine pH 9.0 buffer, 45° C., 16 weeks): 0.92 mg/mL | FMdC ([2]; Glycine pH 9.0 buffer, 45° C., 24 weeks): 0.88 mg/mL | FMdC ([2]; Glycine pH 9.0 buffer, 55° C., 0 weeks): 1.00 mg/mL | FMdC ([2]; Glycine pH 9.0 buffer, 55° C., 4 weeks): 0.91 mg/mL | shelf-life (time at which 5% degradation would be expected) ([2]; pH 9): several years
Structure (SMILES): Nc1ccn([C@@H]2O[C@H](CO)[C@@H](O)/C2=C\F)c(=O)n1 [FMdC, (E)-2′-deoxy-2′-(fluoromethylene)cytidine]
colour change of solution, indicative of degradation ([1]; room temperature, within five days): changes from colorless to yellow to light brown
